What was measured:
Settings in all cases: 48 h
P12-Ichikawa [1] = test: cell viability relative to DMSO control; higher = less cytotoxic
Method in brief: (§1)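 Library compounds in DMSO were pin-dosed in an 11-point threefold series (47 μM to 0.79 nM) onto leukemia cells in 1536-well plates (5 μl). Plates held 500 cells/well of NOMO1 or SEM or 1000 cells/well of P12-Ichikawa, each adapted for at least four passages in each medium. Luminescence was read with CellTiter-Glo One after 48 h at 37°C. Viability means the per-plate percentage relative to DMSO wells, using cell-free wells as background.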

NOMO1 [2] = test: as above
Method in brief: as §1

SEM cells [3] = test: as above
Method in brief: as §1

P12-Ichikawa [4] = test: AUC of viability dose-response curve (% viability x log10 dose units); higher = less sensitive
Method in brief: (§2)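 Leukemia cells adapted to each medium were seeded in 1536-well plates (500 or 1000 cells/well). They were dosed with library compounds in DMSO at 11 threefold doses, 47 μM to 0.79 nM, for 48 h at 37°C. CellTiter-Glo One luminescence was normalised per plate to DMSO and cell-free wells. Area under the curve was integrated by trapezoidal rule over log10 doses on a four-parameter log-logistic fit; curves exceeding full viability were scaled and curves failing quality control removed.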

NOMO1 [5] = test: as above
Method in brief: as §2

SEM cells [6] = test: as above
Method in brief: as §2

COc1cc2ncnc(Nc3cc(Br)c(O)c(Br)c3)c2cc1OC
cell viability [%]
Settings	NOMO1 [2]	P12-Ichikawa [1]	SEM cells [3]
HPLM + 10% dialyzed FBS, 0.000781 µM	95.8	98.7	80
HPLM + 10% dialyzed FBS, 0.00234 µM	91	103	90.5
HPLM + 10% dialyzed FBS, 0.00702 µM	114	106	97.8
HPLM + 10% dialyzed FBS, 0.0211 µM	112	101	98.4
HPLM + 10% dialyzed FBS, 0.0632 µM	107	112	109
HPLM + 10% dialyzed FBS, 0.19 µM	102	110	101
HPLM + 10% dialyzed FBS, 0.569 µM	120	109	113
HPLM + 10% dialyzed FBS, 1.71 µM	119	107	109
HPLM + 10% dialyzed FBS, 5.12 µM	97.2	106	104
HPLM + 10% dialyzed FBS, 15.4 µM	111	108	106
HPLM + 10% dialyzed FBS, 46.1 µM	85.6	96.5	78
RPMI 5 mM glucose + 10% FBS, 0.000781 µM	99.5	92.3	112
RPMI 5 mM glucose + 10% FBS, 0.00234 µM	115	104	107
RPMI 5 mM glucose + 10% FBS, 0.00702 µM	99.8	107	118
RPMI 5 mM glucose + 10% FBS, 0.0211 µM	103	114	121
RPMI 5 mM glucose + 10% FBS, 0.0632 µM	118	109	125
RPMI 5 mM glucose + 10% FBS, 0.19 µM	113	113	101
RPMI 5 mM glucose + 10% FBS, 0.569 µM	109	117	131
RPMI 5 mM glucose + 10% FBS, 1.71 µM	109	118	124
RPMI 5 mM glucose + 10% FBS, 5.12 µM	107	99.7	108
RPMI 5 mM glucose + 10% FBS, 15.4 µM	110	106	102
RPMI 5 mM glucose + 10% FBS, 46.1 µM	106	79.4	85.6
RPMI 5 mM glucose + 10% dialyzed FBS, 0.000781 µM	92.4	95.8	82.8
RPMI 5 mM glucose + 10% dialyzed FBS, 0.00234 µM	99.7	104	99.2
RPMI 5 mM glucose + 10% dialyzed FBS, 0.00702 µM	99.3	108	110
RPMI 5 mM glucose + 10% dialyzed FBS, 0.0211 µM	107	109	97.8
RPMI 5 mM glucose + 10% dialyzed FBS, 0.0632 µM	105	111	113
RPMI 5 mM glucose + 10% dialyzed FBS, 0.19 µM	96.8	114	99.7
RPMI 5 mM glucose + 10% dialyzed FBS, 0.569 µM	108	114	103
RPMI 5 mM glucose + 10% dialyzed FBS, 1.71 µM	112	118	108
RPMI 5 mM glucose + 10% dialyzed FBS, 5.12 µM	103	105	98.5
RPMI 5 mM glucose + 10% dialyzed FBS, 15.4 µM	104	109	89.1
RPMI 5 mM glucose + 10% dialyzed FBS, 46.1 µM	98.2	94.9	61.6

AUC of viability dose-response curve
Settings	NOMO1 [5]	P12-Ichikawa [4]	SEM cells [6]
HPLM + 10% dialyzed FBS	477	473	458
RPMI 5 mM glucose + 10% FBS	470	469	462
RPMI 5 mM glucose + 10% dialyzed FBS	467	472	461

CN1CCN(c2ccc([N+](=O)[O-])c3no[n+]([O-])c23)CC1
cell viability [%]
Settings	NOMO1 [2]	P12-Ichikawa [1]	SEM cells [3]
HPLM + 10% dialyzed FBS, 0.000781 µM	86.5	84.1	93.2
HPLM + 10% dialyzed FBS, 0.00234 µM	101	85.5	89
HPLM + 10% dialyzed FBS, 0.00702 µM	110	87.8	87.3
HPLM + 10% dialyzed FBS, 0.0211 µM	114	93.8	94.7
HPLM + 10% dialyzed FBS, 0.0632 µM	107	99	81.1
HPLM + 10% dialyzed FBS, 0.19 µM	111	91.5	95.2
HPLM + 10% dialyzed FBS, 0.569 µM	100	94.2	97
HPLM + 10% dialyzed FBS, 1.71 µM	105	90.6	85.9
HPLM + 10% dialyzed FBS, 5.12 µM	116	95.7	88.7
HPLM + 10% dialyzed FBS, 15.4 µM	86.6	95.2	82.2
HPLM + 10% dialyzed FBS, 46.1 µM	56.6	82.9	52.4
RPMI 5 mM glucose + 10% FBS, 0.000781 µM	88.4	86.1	84.6
RPMI 5 mM glucose + 10% FBS, 0.00234 µM	99.6	92.4	103
RPMI 5 mM glucose + 10% FBS, 0.00702 µM	87.6	93.1	91.4
RPMI 5 mM glucose + 10% FBS, 0.0211 µM	93.3	89	101
RPMI 5 mM glucose + 10% FBS, 0.0632 µM	92.9	94.7	105
RPMI 5 mM glucose + 10% FBS, 0.19 µM	103	97.7	106
RPMI 5 mM glucose + 10% FBS, 0.569 µM	89.5	93.2	87.4
RPMI 5 mM glucose + 10% FBS, 1.71 µM	85.1	88.1	101
RPMI 5 mM glucose + 10% FBS, 5.12 µM	94.1	95.4	110
RPMI 5 mM glucose + 10% FBS, 15.4 µM	83.9	86.6	98.4
RPMI 5 mM glucose + 10% FBS, 46.1 µM	68.1	91.3	69.1
RPMI 5 mM glucose + 10% dialyzed FBS, 0.000781 µM	81.5	91.9	85.9
RPMI 5 mM glucose + 10% dialyzed FBS, 0.00234 µM	78.1	91.9	97.3
RPMI 5 mM glucose + 10% dialyzed FBS, 0.00702 µM	91.3	91.2	93.4
RPMI 5 mM glucose + 10% dialyzed FBS, 0.0211 µM	85.6	92.1	89.3
RPMI 5 mM glucose + 10% dialyzed FBS, 0.0632 µM	96.1	98.8	85.2
RPMI 5 mM glucose + 10% dialyzed FBS, 0.19 µM	95.6	91.8	99.4
RPMI 5 mM glucose + 10% dialyzed FBS, 0.569 µM	92.5	93.6	99.1
RPMI 5 mM glucose + 10% dialyzed FBS, 1.71 µM	95.9	89	93.3
RPMI 5 mM glucose + 10% dialyzed FBS, 5.12 µM	86.6	90.2	92.4
RPMI 5 mM glucose + 10% dialyzed FBS, 15.4 µM	87.4	91.1	76.1
RPMI 5 mM glucose + 10% dialyzed FBS, 46.1 µM	72.4	77.8	46.1

AUC of viability dose-response curve
Settings	NOMO1 [5]	P12-Ichikawa [4]	SEM cells [6]
HPLM + 10% dialyzed FBS	457	435	418
RPMI 5 mM glucose + 10% FBS	432	437	464
RPMI 5 mM glucose + 10% dialyzed FBS	421	436	424

Reference: the supplement of paper PMC11451515
